Where two headings read alike, the source gives them in different places.
Tests used:
IgE antibody = type: in vivo, rats; settings: for IgE antibody amount in serum, Average value: group average, maximum dilution of serum showing positive reaction
Protocol: At first, 20 male SD rats weighing 180 to 220 g were prepared. Egg-white albumin in an amount of 1 mg per rat was prepared as an antigen to induce the IgE antibody-antigen mediating immune response. Further, a mixture of 20 mg/rat of aluminum hydroxide with 0.6 mi/rat of pertussis vaccine was prepared as an immune aid (adjuvant).
Then, the above antigen and the above adjuvant were equally administered intracutaneously into the four footpads of each rat for sensitization.
24 Hours after the sensitization, the footpad swelling of each rat was measured by volumetry to determine the swelling ratio (unit: %). Then, the rats were separated into four groups each consisting of 5 rats such that the average swelling ratio of one group was nearly equal to that of another group.
Thereafter, one of the four groups was used as Control group, and a physiological saline solution of 10 % Nikkol (trade name, dissolving aid, supplied by Nikko Chemical Co., Ltd.) was administered intraperitoneally to each rat for the 11 consecutive days after the group separation, and on 15th day after the group separation, the serum of each rat was collected, and measured for an IgE antibody amount by means of a 48-hour homologous PCA reaction (passive cutaneous anaphylaxis reaction) as an index. In addition, the IgE antibody amount is shown in terms of a maximum dilution (unit: %) of serum showing positive reaction (blue spot having a diameter of not less than 5 mm).
Two groups of the remaining three groups were used as Example groups ⑥ and 0. A physiological saline solution of 10 % Nikkol containing VIE-MAN was administered intraperitoneally to each rat of Example group ⑥ in such a dose that the amount of VIE-MAN was 30 mg/kg/day for 11 days after the group separation. And, a physiological saline solution of 10 % Nikkol containing VIE-MAN was administered intraperitoneally to each rat of Example group 0 every other day (number of days for administration: 6 days) in such a dose that the amount of VIE-MAN was 100 mg/kg/day for 11 days after the group separation. Then, on 15th day after the group separation, the serum of each rat was collected, and measured for an IgE antibody amount in the same manner as that for Control group.
One remaining group of the four groups was used as Comparative Example group @. A physiological saline solution of 10 % Nikkol containing hydrocortisone which was an adrenocortical hormone preparation was administered intraperitoneally to each rat in such a dose that the amount of the hydrocortisone was 10 mg/kg/day for the consecutive 11 days after the group separation. Then, on 15th day after the group separation, the serum of each rat was collected, and measured for an IgE antibody amount in the same manner as that for Example groups 6 and ⑦.

adjuvant arthritis = adjuvant arthritis (Freund's complete adjuvant), right hind paw swelling by volumetry; type: in vivo, rats; settings: Example 6, Fig. 5; for inhibition activity against acute inflammation (before the 14th day) and adjuvant arthritis (after 17th day): VIE-MAN 10 and 30 mg/kg/day, depending upon the dose, indomethacin 10 mg/kg/day, intraperitoneally
Protocol: 24 male SD rats weighing 180 to 220 g were used, and measured for a size of the subplantar region of the right hind paw. As a substance to cause adjuvant arthritis, 0.05 ml/rat of Freund's complete adjuvant [ADJUVANT COMPLETEFREUND, trade name, supplied by Difco] was used.
Then, the above Freund's complete adjuvant was administered intracutaneously into the subplantar region of right hind paw of each rat, and 24 hours after the administration, the swelling on the right hind paw of each rat was measured by volumetry to determine a swelling ratio. The above rats were separated into four groups each consisting of 6 rats such that the average swelling ratio of one group was nearly equal to that of another group.
Thereafter, one out of the four groups was used as Control group. A physiological saline solution of 10 % Nikkol was administered intraperitoneally to each rat of this group for the consecutive 22 days after the group separation, and the swelling on the right hind paw was measured by volumetry every day after the administration of the physiological saline solution of 10 % Nikkol. The average of swelling ratios as a group for each day was determined on the basis of the values of the sizes of the subplantar regions of the right hind paws obtained by the measurement prior to the administration of the Freund's complete adjuvant.
The procedure for Control group was repeated except that a physiological saline solution of 10 % Nikkol containing VIE-MAN in place of the physiological saline solution of 10 % Nikkol was administered intraperitoneally in such a dose that the amount of VIE-MAN was 10 mg/kg/day.
The procedure for Control group was repeated except that a physiological saline solution of 10 % Nikkol containing VIE-MAN in place of the physiological saline solution of 10 % Nikkol was administered intraperitoneally in such a dose that the amount of VIE-MAN was 30 mg/kg/day.
The remaining one group was used as Comparative Example group ⓕ. The procedure for Example groups @ and @ was repeated except that a physiological saline solution of 10 % Nikkol containing indomethacin which was a nonsteroidal anti-inflammatory preparation (antipyretic analgesic antiphlogistic preparation) in place of the physiological saline solution of 10 % Nikkol was administered intraperitoneally in such a dose that the amount of the indomethacin was 10 mg/kg/day, and the average of swelling ratios as a group was determined.

Compound	inhibition activity against the IgE antibody production (IgE antibody; same test as Example 3 with VIE-GLU in place of VIE-MAN)	inhibition activity against acute inflammation (before the 14th day) and adjuvant arthritis (after 17th day) (adjuvant arthritis)	activity against acute inflammation and adjuvant arthritis compared with VIE-MAN (adjuvant arthritis; indomethacin 10 mg/kg/day intraperitoneally)	average of the swelling ratios (adjuvant arthritis; 10 and 30 mg/kg/day intraperitoneally for 22 days, versus Control group)	average value of the IgE antibody amounts as a group unit (IgE antibody; 30 mg/kg/day (11 days) or 100 mg/kg/day (6 days) intraperitoneally, versus Control group)	inhibition activity against the IgE antibody production (IgE antibody; Example 3 / Comparative Example 2, VIE-MAN 30 or 100 mg/kg/day, hydrocortisone 10 mg/kg/day, intraperitoneally)	IgE antibody amount in serum, Average value (IgE antibody; 30 mg/kg/day (total 11 days) intraperitoneally)	IgE antibody amount in serum, Average value (IgE antibody; 100 mg/kg/day (total 6 days) intraperitoneally)
Cc1c(C)c2c(c(C)c1OC1OC(CO)C(O)C(O)C1O)CCC(C)(CCCC(C)CCCC(C)CCCC(C)C)O2 (racemic) [VIE-GLU, dl-α-tocopheryl-,8-D-glucoside]	excellent inhibition activity							
COc1ccc2c(c1)c(CC(=O)O)c(C)n2C(=O)c1ccc(Cl)cc1 [indomethacin, reference compound]		showed inhibitory activity against both acute inflammation and adjuvant arthritis	much lower than that of VIE-MAN					
Cc1c(C)c2c(c(C)c1OC1OC(CO)C(O)C(O)C1O)CCC(C)(CCCC(C)CCCC(C)CCCC(C)C)O2 (racemic) [VIE-MAN, dl-a-tocopheryl-a-D-mannoside]		excellent inhibition activity		significantly lower than that of the swelling ratios of Control group	significantly lower than that of the IgE antibody amounts of Control group	excellent inhibition activity	166.4	128.0

Reference: EP0452507A1, “MEDICINE COMPRISING TOCOPHERYL GLYCOSIDE AS ACTIVE INGREDIENT” (NIPPON HYPOX LABORATORIES INCORPORATED, priority 1989, dated 1991)
